From patent publication US7560484B2 (priority 2000, dated 2009)

Experiments:
[1] = tested on: influenza HA vaccine (influenza virus A/PR/8/34); parameters: species or system BALB/c mice; conditions: mouse, in vivo, po
[2] = tested on: pertussis-diphtheria-tetanus combined vaccine; parameters: species or system mice; conditions: mouse, in vivo, po
[3] = tested on: measles-rubella vaccine; format: in vivo, mice; conditions: blood; vaccine nasal twice at 3-week intervals; adjuvant oral before and after first inoculation
[4] = tested on: Mycoplasma; format: in vivo, mice
[5] = tested on: influenza HA vaccine; conditions: mouse, in vivo
[6] = tested on: rotavirus vaccine; format: in vivo, mice; conditions: blood

`CCCCC[C@H](O)[C@@H](O)/C=C/[C@@H](O)CCCCCCCC(=O)O` [9S,12S,13S-trihydroxy-10E-octadecenoic acid] was tested, and the “titer of anti-influenza virus IgA antibody in nasal irrigation liquids” value [1] was “strongly enhanced”, the “titer of anti-influenza virus IgA antibody in the sera” value [1] was “significantly increased” and the “titer of anti-influenza virus IgG1 antibody in nasal irrigation liquids” value [1] was “strongly enhanced”. For the same molecule, the “titer of anti-influenza virus IgG1 antibody in the sera” value [1] was “significantly increased”, the “level of anti-DT-IgA antibody in the nasal irrigation liquid” value [2] was 11 ELISA units and the “level of anti-PT-IgA antibody in the nasal irrigation liquid” value [2] was 14 ELISA units. The “level of anti-TT-IgA antibody in the nasal irrigation liquid” value [2] was 11 ELISA units, the “level of anti-diphtheria toxoid (DT)-IgG antibody in the blood” value [2] was 70 ELISA units and the “level of anti-pertussis toxin (PT)-IgG antibody in the blood” value [2] was 442 ELISA units. The “level of anti-tetanus toxoid (TT)-IgG antibody in the blood” value [2] was 75 ELISA units, the “ELISA titer of antibody produced for measles” value [3] was 0.30 and the “ELISA titer of antibody produced for rubella” value [3] was 0.29. For the same molecule, the “mice with lesions associated with Mycoplasma infection” value ([4]; mouse, in vivo, po) was 3 of 10, the “average number of lesions” value ([4]; vaccine intranasal three times at 2-week intervals, adjuvant oral before and after first inoculation) was 178 and the “titer of anti-influenza vaccine IgE antibody in the bronchoalveolar irrigation liquid” value [5] was “significantly decreased”.

With `CCCCC[C@H](O)[C@H](O)/C=C/[C@H](O)CCCCCCCC(=O)O` [9R,12R,13S-trihydroxy-10E-octadecenoic acid] the “titer of anti-influenza virus IgA antibody in nasal irrigation liquids” value [1] was “strongly enhanced” and the “titer of anti-influenza virus IgG1 antibody in nasal irrigation liquids” value [1] was “strongly enhanced”.

In the case of `CCCCC[C@H](O)[C@H](O)/C=C/[C@@H](O)CCCCCCCC(=O)O` [9S,12R,13S-trihydroxy-10E-octadecenoic acid], the “titer of anti-influenza virus IgA antibody in nasal irrigation liquids” value [1] is reported as “strongly enhanced” and the “titer of anti-influenza virus IgG1 antibody in nasal irrigation liquids” value [1] is reported as “strongly enhanced”.

In the case of `CCCCC[C@H](O)[C@@H](O)/C=C/[C@@H](O)CCCCCCCC(=O)OC` [methyl ester derivative, methyl 9S,12S,13S-trihydroxy-10E-octadecenoate], the “ELISA titer of antibody produced, vaccine inoculated orally” value ([6]; rotavirus vaccine inoculated orally) is reported as 0.27 and the “ELISA titer of antibody produced, nasal vaccine drop” value ([6]; rotavirus vaccine nasal twice at 3-week intervals, adjuvant oral before and after first inoculation) is reported as 0.38.
